Literature values as cited in patent US20040024036A1, “Pharmaceutical composition for transdermal delivery of befloxatone” (priority 2000, published 2004).

How the values were obtained:
[1] = system: noradrenalin (NA) reuptake
[2] = target: T1, MAO-B (Homo sapiens, UniProt P27338); settings: MAO-A versus MAO-B
T1 sequence (P27338 1-520): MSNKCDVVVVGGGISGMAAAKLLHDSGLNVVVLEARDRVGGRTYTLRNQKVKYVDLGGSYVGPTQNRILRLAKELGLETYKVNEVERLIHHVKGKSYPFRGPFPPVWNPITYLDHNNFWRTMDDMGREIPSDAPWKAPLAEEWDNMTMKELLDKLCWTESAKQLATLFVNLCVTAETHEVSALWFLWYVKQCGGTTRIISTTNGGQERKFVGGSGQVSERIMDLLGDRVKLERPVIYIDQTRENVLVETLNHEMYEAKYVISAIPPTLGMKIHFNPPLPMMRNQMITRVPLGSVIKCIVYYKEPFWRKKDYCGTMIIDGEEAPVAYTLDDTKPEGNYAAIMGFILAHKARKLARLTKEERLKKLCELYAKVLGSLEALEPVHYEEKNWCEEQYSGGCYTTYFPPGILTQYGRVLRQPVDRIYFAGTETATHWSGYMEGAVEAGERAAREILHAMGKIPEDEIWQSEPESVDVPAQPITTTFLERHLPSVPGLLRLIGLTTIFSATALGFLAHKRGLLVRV

[3] = system: dopamine (DA) reuptake
[4] = target: T2, MAO-A (Homo sapiens, UniProt P21397); settings: reversible inhibitor
T2 sequence (P21397 1-527): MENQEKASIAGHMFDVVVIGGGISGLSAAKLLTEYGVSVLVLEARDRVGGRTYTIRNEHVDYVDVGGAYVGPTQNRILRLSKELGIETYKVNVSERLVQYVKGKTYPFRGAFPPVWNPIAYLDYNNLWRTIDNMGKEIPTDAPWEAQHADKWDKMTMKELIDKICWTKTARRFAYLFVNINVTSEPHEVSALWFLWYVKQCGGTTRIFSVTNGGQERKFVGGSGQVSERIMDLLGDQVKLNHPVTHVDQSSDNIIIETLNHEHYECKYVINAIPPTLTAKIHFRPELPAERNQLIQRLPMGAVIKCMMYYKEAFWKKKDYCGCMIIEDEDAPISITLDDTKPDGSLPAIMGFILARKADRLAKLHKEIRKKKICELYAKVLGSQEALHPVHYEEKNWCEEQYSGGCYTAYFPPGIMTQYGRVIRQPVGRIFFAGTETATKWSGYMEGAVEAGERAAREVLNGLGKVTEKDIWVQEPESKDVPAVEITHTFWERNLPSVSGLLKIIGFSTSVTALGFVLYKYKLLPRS

[5] = system: serotonin (5-HT) reuptake

COC[C@H]1CN(c2ccc(OCC[C@@H](O)C(F)(F)F)cc2)C(=O)O1 [befloxatone]
effect on noradrenalin (NA) reuptake [1]: does not affect | selectivity toward the B isoform (MAO-B) [2]: very good selectivity | effect on dopamine (DA) reuptake [3]: does not affect | affinity for the A isoform (MAO-A) [4]: very high affinity | effect on serotonin (5-HT) reuptake [5]: does not affect
